Records with an inconclusive call do not appear.
system: Clone20 osteoblast Shn3 3'UTR firefly luciferase, 24 h; experiment: Schnurri-3 3'UTR-luciferase signal suppressors – cell-based, Clone20 osteoblasts, luminescence, dry powder, set 2, dose response (AID 743417)

Row | Structure (SMILES) | AC50
1 | Cc1ccc(CNC(=O)CSc2c3c(nc4ccc(Cl)cc24)CCCC3)o1 | 5980 nM
2 | COc1ccccc1NC(=O)Cc1nn(C)c(=O)c2ccccc12 | 1970 nM
3 | c1ccc(-c2cc3nc(NCC4CC4)nc(NCC4CCCCC4)c3s2)cc1 | 2670 nM
4 | N=c1n(Cc2ccc(Cl)cc2)c2ccccc2n1CC(O)COc1ccccc1 (configuration not stated) | 2340 nM
5 | CCCCN1CC(COCc2ccccc2)Oc2cccc(Oc3cc(C)c(C)c(C)c3)c2S1(=O)=O (configuration not stated) | 9160 nM
6 | CCCOc1ccccc1C1CC(=O)Nc2cc3c(cc21)OCCO3 (configuration not stated) | 3660 nM
7 | CC(=O)NC(c1cccs1)c1cc(F)c2cccnc2c1O (configuration not stated) | 1670 nM
8 | COc1ccc2c(CC(=O)OCC(=O)N(C)c3c(N)n(Cc4ccccc4)c(=O)[nH]c3=O)coc2c1 | 21200 nM
9 | O=C(Nc1ccccc1)C1=C(c2ccccc2)S(=O)(=O)CCS1(=O)=O | 1370 nM
10 | C=CCSc1nc2ccccc2n1C(=O)/C=C/c1cc(OC)c(OC)c(OC)c1 | 1130 nM
11 | Nc1nc(N)c2cc(Sc3cccc(C(F)(F)F)c3)ccc2n1 | 4870 nM
12 | O=C1CSc2ccc(C(=O)Nc3cccc(S(=O)(=O)Nc4ccc(Br)cc4)c3)cc2N1 | 3080 nM
13 | CN(C)S(=O)(=O)c1cccc(N=c2scc(-c3ccc4c(c3)NC(=O)CO4)n2CC2CCCO2)c1 (configuration not stated) | 14000 nM
14 | C/C(Cl)=C\Cn1c(NCCc2ccccc2)nc2c1c(=O)n(C)c(=O)n2C | 283 nM
15 | CN1CCN(Cc2nc3ccccc3c(=O)n2Cc2nc(-c3ccc4ccccc4c3)cs2)CC1 | 11000 nM
16 | CC[n+]1c(/C=C/Nc2ccccc2)sc2ccccc21 | 2060 nM
17 | CCCOc1ccccc1C1CC(=O)Nc2cc3c(cc21)OCO3 (configuration not stated) | 5720 nM
18 | CCOC(=O)N1CCC(NC(=O)C2CCCN(Cc3nc(-c4cccc(Cl)c4)oc3C)C2)CC1 (configuration not stated) | 9500 nM
19 | Cn1c(=O)[nH]c(=O)c2c1nc([N+](=O)[O-])n2Cc1ccccc1 | 1900 nM
20 | COc1ccc(CNC(=O)c2cccc3c(-c4cccnc4)coc23)cc1OC | 900 nM
21 | O=C(OC12CC3CC(CC(C3)C1)C2)c1ccc(NCc2cc(O)ccc2O)cc1 | 2330 nM
22 | CCC(C)[C@H]1CNC(=S)N1CCc1cc(C(F)(F)F)cc(C(F)(F)F)c1 (some centres not stated) | 21600 nM
23 | CN(c1cccc(NC(=O)CN(c2ccc(C34CC5CC(CC(C5)C3)C4)cc2)S(C)(=O)=O)c1)S(C)(=O)=O | 7580 nM
24 | Cc1nc2ccccc2c2oc(C(=O)N3CCN(C4CCCCC4)CC3)cc12 | 7020 nM
25 | C[C@]12CC[C@H](O)CC1=CCC1C2CC[C@@]2(C)C1CCC21OCCO1 (some centres not stated) | 27300 nM
26 | Cc1ccc(Nc2nc(NCc3ccco3)c3ccccc3n2)cc1 | 9840 nM

Row | Structure (SMILES) | AC50
27 | Cc1cc(C)nc(SCC(=O)Nc2ccc(N3CCOCC3)c(Cl)c2)n1 | 1660 nM
28 | CC(C)c1nnc(NC(=O)c2nc(S(=O)(=O)Cc3ccc(F)cc3)ncc2Cl)s1 | 2830 nM
29 | CC[C@H](C)[C@H]1O[C@]2(CC[C@@H]1C)C[C@@H]1C[C@@H](CC=C(C)[C@@H](O[C@H]3C[C@H](OC)[C@@H](O[C@H]4C[C@H](OC)[C@@H](O)[C@H](C)O4)[C@H](C)O3)[C@@H](C)C=CC=C3CO[C@@H]4[C@H](O)C(C)=C[C@@H](C(=O)O1)[C@]34O)O2 | 6320 nM
30 | COc1ccc(NS(=O)(=O)c2cccc(NC(=O)c3ccc(S(=O)(=O)N4CCCCCC4)cc3)c2)cc1 | 829 nM
31 | O=C(NNC(=S)Nc1ccc(Cl)c(Cl)c1)c1ccccn1 | 2330 nM
32 | Cc1cc(Br)c(S(=O)(=O)NCc2ccncc2)cc1C | 1410 nM
33 | CS(=O)(=O)N1CCN(c2ccc(NC(=O)c3ccc([N+](=O)[O-])o3)cc2)CC1 | 5650 nM
34 | Cc1cc(Cl)c(S(=O)(=O)N2CCSCC2)cc1OCC(=O)NC1CCCCC1 | 4110 nM
35 | C=CCn1c(-c2ccc(S(=O)(=O)N3CCOCC3)cc2)csc1=Nc1ccccc1 | 1520 nM
36 | CC(C)NS(=O)(=O)c1ccc(CCC(=O)Nc2cc(Cl)ccc2Oc2ccccc2)cc1 | 7650 nM
37 | Cc1ccc(Oc2ccc(OCC(=O)Nc3ccncc3)cc2)cc1 | 1550 nM
38 | O=[N+]([O-])c1cc(S(=O)(=O)C(F)(F)F)ccc1Sc1nc2ccccc2s1 | 2450 nM
39 | CC(=O)NC(c1ccc(C)cc1)c1cc(Cl)c2cccnc2c1O (configuration not stated) | 2120 nM
40 | Cc1cc(S(=O)(=O)NCc2ccncc2)c(C)cc1Br | 1230 nM
41 | Cc1ccc(Nc2c(-c3ccccn3)nc3ccc(C)cn23)cc1 | 1740 nM
42 | CN(c1cccc(Cl)c1)S(=O)(=O)c1cccc(C(=O)NCc2ccncc2)c1 | < 260 nM
43 | Cc1cc(/C=C2/SC(=S)N(c3cccc(Cl)c3)C2=O)c(C)n1-c1cccnc1 | 979 nM
44 | COc1ccc(NC(=O)C2Cc3c(-c4cccc(C(C)=O)c4)ccnc3O2)cc1OC (configuration not stated) | 799 nM
45 | O=C(Nc1ccc(Br)cc1)c1ccc(F)c(S(=O)(=O)NCc2cccs2)c1 | 3050 nM
46 | Cc1cccc(CS(=O)(=O)c2ncc(Cl)c(C(=O)NCc3ccccc3)n2)c1 | 2940 nM
47 | CCN(CC)CCn1c(=N)n(CC(O)COc2cccc(C)c2)c2ccccc21 (configuration not stated) | 4390 nM
48 | COC(=O)c1ccc(NC(=O)c2nc(S(=O)(=O)Cc3cccc(C)c3)ncc2Cl)cc1 | 1350 nM
49 | CN(C)CCCNc1c2ccccc2nc2ccccc12 | 3220 nM
50 | CC1=C(C#N)C(C(F)(F)F)(C(F)(F)F)N=C(c2ccco2)N1 | 7720 nM
51 | COc1cc(N2C(=O)C=CC2=O)ccc1N1C(=O)C=CC1=O | 2320 nM
52 | CC(=O)c1c(C)[nH]c(C(=O)OCC(=O)Nc2ccc(Cl)cc2[N+](=O)[O-])c1C | 325 nM

— PubChem BioAssay AID743417 (Broad Institute, 2014)
